Measured values as given in patent US20100331269A1, “TRITERPENES DERIVATIVES AND USES THEREOF AS ANTITUMOR AGENTS OR ANTI-INFLAMMATORY AGENTS” (priority 2006, published 2010).

Legend:
[1] = system: WS-1 cells; assay: Cytotoxicity, Hoechst DNA assay, WS-1; format: cell-based, human; conditions: ± SD
From the text: (§1) Human lung carcinoma (A-549), human colon adenocarcinoma (DLD-1), human normal fibroblasts (WS1), mice melanoma (B16-F1), Human glioma (U-251), Human hepatocellular carcinoma (HEP G2), Human prostate adenocarcinoma (PC-3), Human ovary teratocarcinoma metastatic (PA-1), Human breast adenocarcinona metastatic (MDA-MB-231), Human breast adenocarcinoma (MCF-7) and Human malignant melanoma (SK-MEL-2) cell lines were obtained from the American Type Culture Collection (ATCC). All cell lines were cultured in minimum essential medium containing Earle's salts and L-glutamine (Mediatech Cellgro, Va.), to which was added 10% fetal bovine serum (Hyclone), vitamins (1×), penicillin (100 I.U./mL) and streptomycin (100 μg/mL), essential amino acids (1×) and sodium pyruvate (1×) (Mediatech Cellgro, Va.). Cells were kept at 37° C. in a humidified environment containing 5% CO2.
(§2) The cytotoxicity of triterpenes (1-8) and corresponding glycosides (9-30) (Table 2 below) as well as of germanicane-type triterpenes and glycosides (31-44) (Table 3 below) was assessed towards human cancer (A-549, DLD-1), mouse melanoma (B16-F1) and human normal skin fibroblast (WS1) cell lines using the resazurin reduction test (RTT test) as previously described (O'Brien, J. et al., Eur. J. Biochem. 2000, 267, 5421-5426). Measurements of fluorescence were carried out after 48 continuous hours of contact between compounds and cells. Results presented in Tables 2 and 3 below express the concentration inhibiting 50% of the cell growth (IC50). Known for its activity against A-549, betulinic acid (3) was used as a positive control in this experimentation. […] The cytotoxic activity of some of these compounds was also assessed using the Hoechst DNA assay (Table 4 below).

[2] = system: A-549 cells; assay: Cytotoxicity, Hoechst DNA assay, A-549; format: cell-based, human; conditions: ± SD
From the text: as §1, §2

[3] = system: B16-F1 cells; assay: Cytotoxicity, Hoechst DNA assay, B16-F1; format: cell-based, mouse; conditions: ± SD
From the text: as §1, §2

[4] = system: DLD-1 human colorectal adenocarcinoma cells; assay: Cytotoxicity, resazurin metabolism assay, DLD-1; format: cell-based; conditions: 48 h, mean ± SD
From the text: as §1
(§3) Exponentially growing cells were plated in 96-well microplates (Costar, Corning Inc.) at a density of 5×10^3 cells per well in 100 μL of culture medium and were allowed to adhere for 16 hours before treatment. Increasing concentrations of each compound in DMSO (Sigma-Aldrich) were then added (100 μL per well) and the cells were incubated for 48 h. […] Cytotoxicity was assessed using resazurin (O'Brien, J. et al., Eur. J. Biochem. 2000, 267, 5421-5426) on an automated 96-well Fluoroskan Ascent F1™ plate reader (Labsystems) using excitation and emission wavelengths of 530 nm and 590 nm, respectively. Fluorescence was proportional to the cellular metabolic activity in each well. Survival percentage was defined as the fluorescence in experimental wells compared to that in control wells after subtraction of blank values. Each experiment was carried out three times in triplicata. IC50 results were expressed as mean±standard deviation.
as §2

[5] = system: WS-1 human normal skin fibroblasts; assay: Cytotoxicity, resazurin metabolism assay, WS-1; format: cell-based; conditions: 48 h, mean ± SD
From the text: as §1, §3, §2

[6] = system: DLD-1 cells; assay: Cytotoxicity, Hoechst DNA assay, DLD-1; format: cell-based, human; conditions: ± SD
From the text: as §1, §2

[7] = system: A-549 human lung carcinoma cells; assay: Cytotoxicity, resazurin metabolism assay, A-549; format: cell-based; conditions: 48 h, mean ± SD
From the text: as §1, §3, §2

[8] = system: B16-F1 mouse melanoma cells; assay: Cytotoxicity, resazurin metabolism assay, B16-F1; format: cell-based; conditions: 48 h, mean ± SD
From the text: as §1, §3, §2

[9] = system: MDA-MB-231 human breast adenocarcinoma cells; assay: Cytotoxicity, resazurin metabolism assay, MDA-MB-231; format: cell-based; conditions: mean ± SD
From the text: as §1, §3
(§4) Compounds presented in Table 5 below were also tested in the following tumour cell lines: U-251 (Human glioma), HEP G2 (Human hepatocellular carcinoma), PC-3 (Human prostate adenocarcinoma), PA-1 (Human ovary teratocarcinoma metastatic), MDA-MB-231 (Human breast adenocarcinona metastatic), MCF-7 (Human breast adenocarcinoma) and SK-MEL-2 (Human malignant melanoma).

[10] = system: Hep G2 human hepatocellular carcinoma cells; assay: Cytotoxicity, resazurin metabolism assay, Hep G2; format: cell-based; conditions: mean ± SD
From the text: as §1, §3, §4

[11] = system: U-251 human glioma cells; assay: Cytotoxicity, resazurin metabolism assay, U-251; format: cell-based; conditions: mean ± SD
From the text: as §1, §3, §4

[12] = system: PC-3 human prostate adenocarcinoma cells; assay: Cytotoxicity, resazurin metabolism assay, PC-3; format: cell-based; conditions: mean ± SD
From the text: as §1, §3, §4

[13] = system: SK-Mel-2 human melanoma cells; assay: Cytotoxicity, resazurin metabolism assay, SK-Mel-2; format: cell-based; conditions: mean ± SD
From the text: as §1, §3, §4

[14] = system: PA-1 human ovary teratocarcinoma cells; assay: Cytotoxicity, resazurin metabolism assay, PA-1; format: cell-based; conditions: mean ± SD
From the text: as §1, §3, §4

[15] = system: MCF-7 human breast adenocarcinoma cells; assay: Cytotoxicity, resazurin metabolism assay, MCF-7; format: cell-based; conditions: mean ± SD
From the text: as §1, §3, §4

SMILES	IC50 [1] [µM]	IC50 [2] [µM]	IC50 [3] [µM]	IC50 [4] [µM]	IC50 [5] [µM]	IC50 [6] [µM]	IC50 [7] [µM]	IC50 [8] [µM]	IC50 [9] [µM]	IC50 [10] [µM]	IC50 [11] [µM]	IC50 [12] [µM]	IC50 [13] [µM]	IC50 [14] [µM]	IC50 [15] [µM]
C=C(C)[C@@H]1CC[C@]2(CO)CC[C@]3(C)[C@H](CC[C@@H]4[C@@]5(C)CC[C@H](O)C(C)(C)[C@@H]5CC[C@]43C)[C@@H]12 [Compound 2, Betulin, reference compound]	5 ± 1	4.5 ± 0.3	10.3 ± 0.7	6.6 ± 0.3	3.58 ± 0.07	5.9 ± 0.6	3.8 ± 0.09	13.8 ± 0.5	–	–	–	–	–	–	–
C=C(C)[C@@H]1CC[C@]2(COC(C)=O)CC[C@]3(C)[C@H](CC[C@@H]4[C@@]5(C)CC[C@H](O)C(C)(C)[C@@H]5CC[C@]43C)[C@@H]12 [Compound 5, 28-Acetoxybetulin]	47 ± 2	49 ± 7	35 ± 1	56 ± 4	44 ± 2	46 ± 5	75 ± 7	43 ± 2	–	–	–	–	–	–	–
C=C(C)[C@@H]1CC[C@]2(CO)CC[C@]3(C)[C@H](CC[C@@H]4[C@@]5(C)CC[C@H](OC(C)=O)C(C)(C)[C@@H]5CC[C@]43C)[C@@H]12 [Compound 6, 3-Acetoxybetulin]	> 180	90 ± 10	42 ± 6	> 253	> 253	> 253	> 253	> 253	–	–	–	–	–	–	–
C=C(C)[C@@H]1CC[C@]2(C(=O)OC)CC[C@]3(C)[C@H](CC[C@@H]4[C@@]5(C)CC[C@H](O)C(C)(C)[C@@H]5CC[C@]43C)[C@@H]12 [Compound 7, Methyl Betulinate]	19 ± 4	19 ± 2	15.7 ± 0.9	25 ± 4	19 ± 2	21 ± 1	19 ± 3	26 ± 1	–	–	–	–	–	–	–
C=CCOC(=O)C12CCC(C(=C)C)C1C1CCC3C4(C)CCC(O)C(C)(C)C4CCC3(C)C1(C)CC2 (stereo not drawn) [Compound 8, Allyl betulinate]	> 225	> 225	> 225	> 225	> 225	> 225	> 225	> 225	–	–	–	–	–	–	–
C=C(C)[C@@H]1CC[C@]2(C)CC[C@]3(C)[C@H](CC[C@@H]4[C@@]5(C)CC[C@H](O[C@@H]6O[C@@H](C)[C@H](O)[C@@H](O)[C@H]6O)C(C)(C)[C@@H]5CC[C@]43C)[C@@H]12 [Compound 10, 3-O-α-L-Rhamnopyranoside of lupeol]	> 178	> 178	> 178	> 178	> 178	> 178	> 178	> 178	–	–	–	–	–	–	–
C=C(C)[C@@H]1CC[C@]2(CO)CC[C@]3(C)[C@H](CC[C@@H]4[C@@]5(C)CC[C@H](O[C@@H]6O[C@H](CO)[C@@H](O)[C@H](O)[C@H]6O)C(C)(C)[C@@H]5CC[C@]43C)[C@@H]12 [Compound 12, 3-O-β-D-Glucopyranoside of Betulin]	> 200	> 200	> 200	> 200	> 200	> 200	> 200	> 200	–	–	–	–	–	–	–
C=C(C)[C@@H]1CC[C@]2(CO[C@@H]3O[C@H](CO)[C@@H](O)[C@H](O)[C@H]3O)CC[C@]3(C)[C@H](CC[C@@H]4[C@@]5(C)CC[C@H](O)C(C)(C)[C@@H]5CC[C@]43C)[C@@H]12 [Compound 15, 28-O-β-D-Glucopyranoside of Betulin]	> 194	> 194	> 194	> 248	> 248	> 194	> 248	> 248	–	–	–	–	–	–	–
C=C(C)C1CCC2(COC3OC(C)C(O)C(O)C3O)CCC3(C)C(CCC4C5(C)CCC(O)C(C)(C)C5CCC43C)C12 [Compound 16, 28-O-α-L-Rhamnopyranoside of Betulin]	> 194	> 194	> 194	> 228	> 228	> 194	> 228	> 228	–	–	–	–	–	–	–
C=C(C)[C@@H]1CC[C@]2(C(=O)OC)CC[C@]3(C)[C@H](CC[C@@H]4[C@@]5(C)CC[C@H](O[C@@H]6O[C@@H](C)[C@H](O)[C@@H](O)[C@H]6O)C(C)(C)[C@@H]5CC[C@]43C)[C@@H]12 [Compound 19, 3-O-α-L-Rhamnopyranoside of Methyl Betulinate]	65 ± 5	58 ± 2	46 ± 1	> 183	53 ± 2	> 150	59 ± 3	55 ± 2	–	–	–	–	–	–	–
C=C(C)[C@@H]1CC[C@]2(C(=O)O)CC[C@]3(C)[C@H](CC[C@@H]4[C@@]5(C)CC[C@H](O[C@@H]6O[C@H](CO)[C@@H](O)[C@H](O)[C@H]6O)C(C)(C)[C@@H]5CC[C@]43C)[C@@H]12 [Compound 21, 3-O-β-D-Glucopyranoside of Betulinic Acid]	> 178	> 178	17 ± 4	32 ± 9	> 178	12 ± 3	> 178	49 ± 13	–	–	–	–	–	–	–
C=C(C)C1CCC2(CO)CCC3(C)C(CCC4C5(C)CCC(OC6OC(CO)C(O)C(O)C6O)C(C)(C)C5CCC43C)C12 [Compound 26, 3-O-β-D-Mannopyranoside of Betulin]	–	–	–	11 ± 0.5	5.3 ± 0.5	–	7.5 ± 0.1	–	9.1 ± 0.2	8.3 ± 0.4	8.3 ± 0.4	8.6 ± 0.4	8.8 ± 0.4	7.6 ± 0.4	9.2 ± 0.4
C=C(C)C1CCC2(C(=O)O)CCC3(C)C(CCC4C5(C)CCC(OC6OC(CO)C(O)C(O)C6O)C(C)(C)C5CCC43C)C12 [Compound 29, 3-O-β-D-Mannopyranoside of Betulinic Acid]	–	–	–	14.9 ± 0.5	16 ± 3	–	41 ± 4	–	21 ± 2	26 ± 2	6 ± 2	27 ± 3	4.7 ± 0.6	2.2 ± 0.2	20 ± 2
